From US10905775B2, “Particulate constructs for release of active agents” (CELATOR PHARMACEUTICALS, INC., priority 2004, dated 2021)

Experiments:
[1] = Nanoparticle size by dynamic light scattering (DLS); assay type: physicochemical; conditions: control: unconjugated paclitaxel + VitES + mPEG5-PCL7
Description: A 300 mM sucrose solution is prepared, loaded into a 100 ml gas tight syringe, and fixed on a second syringe pump. […] At the mixer outlet, two samples are collected. The first sample is collected in a scintillation vial and analyzed for particle size by dynamic light scattering (DLS), and the second sample is collected in low temperature freezer vials, and freeze-dried. The freeze-drying cycle is the following: −40° C. overnight, −10° C. for a day, 4° C. for a day, and then room temperature for one day. […] The samples are checked visually for crystals/aggregates formation. […] A freeze-dried sample is dissolved in methanol to dissociate the nanoparticles, and the solution is tested for the presence of THF using CGC. Particle size may be determined by DLS. […] The sample collected in a scintillation vial from the mixer effluent is inserted into the DLS sample cell containing decalin scintillation fluid (maintained at 25° C. using a temperature bath), and left to equilibrate to the cell temperature. The run duration is 60 seconds, replicated three times. The particle size expressed as the hydrodynamic diameter is obtained using an ALV 5000 correlator and a second order cumulant fit.

[2] = Visual check / description of nanoparticle samples for crystals, aggregates, stability; assay type: physicochemical; conditions: control: unconjugated paclitaxel 8 mg + VitES 10 mg + mPEG5-PCL7 in THF mixed against water
Description: A 300 mM sucrose solution is prepared, loaded into a 100 ml gas tight syringe, and fixed on a second syringe pump. […] At the mixer outlet, two samples are collected. The first sample is collected in a scintillation vial and analyzed for particle size by dynamic light scattering (DLS), and the second sample is collected in low temperature freezer vials, and freeze-dried. The freeze-drying cycle is the following: −40° C. overnight, −10° C. for a day, 4° C. for a day, and then room temperature for one day. […] The samples are checked visually for crystals/aggregates formation. […] A freeze-dried sample is dissolved in methanol to dissociate the nanoparticles, and the solution is tested for the presence of THF using CGC.

## CC(=O)O[C@H]1C(=O)[C@@]2(C)[C@H]([C@H](OC(=O)c3ccccc3)[C@]3(O)C[C@H](OC(=O)[C@H](O)[C@@H](NC(=O)c4ccccc4)c4ccccc4)C(C)=C1C3(C)C)[C@]1(OC(C)=O)CO[C@@H]1C[C@@H]2O [paclitaxel]
[1]
  particles detected by Dynamic Light Scattering: no particles were detected
[2]
  time after mixing at which crystals were visible: about 20 minutes
